Experimental data: PubChem BioAssay AID434941 (Johns Hopkins Ion Channel Center, 2010)

Target: Short transient receptor potential channel 4 (Mus musculus) (UniProt Q9QUQ5)
Test: potentiation of DAMGO-evoked TRPC4 calcium signal – cell-based, HEK293 TRPC4/mu-opioid, Fluo-4 calcium, EC20 DAMGO, dose response (AID 434941);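 note: calcium entry triggered by an EC20 dose of DAMGO at the co-expressed mu-opioid receptor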
Conditions: HEK293 TRPC4/mu-opioid cells, Fluo-4 calcium fluorescence

Short transient receptor potential channel 4 (Mus musculus), sequence (Q9QUQ5 whole entry, looked up): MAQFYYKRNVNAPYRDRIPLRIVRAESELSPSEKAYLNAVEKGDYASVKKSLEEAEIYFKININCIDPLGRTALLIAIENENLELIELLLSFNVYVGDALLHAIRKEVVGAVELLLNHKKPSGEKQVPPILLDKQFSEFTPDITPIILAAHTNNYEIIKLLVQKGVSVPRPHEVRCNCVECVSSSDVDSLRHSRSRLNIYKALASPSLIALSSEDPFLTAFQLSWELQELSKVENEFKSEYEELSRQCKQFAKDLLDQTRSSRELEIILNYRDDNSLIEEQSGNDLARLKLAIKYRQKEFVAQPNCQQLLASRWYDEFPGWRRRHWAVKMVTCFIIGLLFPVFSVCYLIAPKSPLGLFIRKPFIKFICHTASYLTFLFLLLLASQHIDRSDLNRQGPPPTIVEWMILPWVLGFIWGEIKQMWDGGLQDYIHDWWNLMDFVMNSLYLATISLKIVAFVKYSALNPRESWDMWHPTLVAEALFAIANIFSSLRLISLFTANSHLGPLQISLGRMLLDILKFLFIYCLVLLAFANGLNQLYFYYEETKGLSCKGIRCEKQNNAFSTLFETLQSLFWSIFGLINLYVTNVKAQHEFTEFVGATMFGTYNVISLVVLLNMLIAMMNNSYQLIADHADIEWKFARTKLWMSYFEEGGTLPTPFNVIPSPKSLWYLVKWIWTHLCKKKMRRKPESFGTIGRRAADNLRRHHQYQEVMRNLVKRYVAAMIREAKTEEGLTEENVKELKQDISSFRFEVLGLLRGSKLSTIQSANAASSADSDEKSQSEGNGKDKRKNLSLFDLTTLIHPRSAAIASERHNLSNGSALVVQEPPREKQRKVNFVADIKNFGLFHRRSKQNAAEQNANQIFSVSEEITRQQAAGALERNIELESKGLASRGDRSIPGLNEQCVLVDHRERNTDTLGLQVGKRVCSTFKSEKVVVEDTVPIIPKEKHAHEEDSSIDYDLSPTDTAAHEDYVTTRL

Q: Cn1c(O)c(/C=N/NC(=O)c2cc3ccccc3cc2O)c2ccccc21 was tested. Which EC50 did it give?
A: The EC50 was 5.96 µM.
